These compounds were tested on Mycobacterium tuberculosis (assay: Antitubercular activity against autoluminescent Mycobacterium tuberculosis H37Rv assessed as reduction in microbial growth by two-fold serial dilution method).
Format: functional

For `CO[C@H]1/C=C/O[C@@]2(C)Oc3c(C)c(O)c4c(O)c(c(/C=N/N5CCN(C)CC5)c(O)c4c3C2=O)NC(=O)/C(C)=C\C=C\[C@H](C)[C@H](O)[C@@H](C)[C@@H](O)[C@@H](C)[C@H](OC(C)=O)[C@@H]1C` [RIFAMPIN], which MIC is on record?
The MIC was 0.06 µM.

With `C/C=C/C=C/c1ccccc1/C=C/C(=O)N[C@@H]1C(=O)N[C@@H](CO)C(=O)N[C@@H](Cc2c[nH]c3ccccc23)C(=O)N[C@H](CC(N)=O)C(=O)N[C@@H]([C@@H](O)c2ccccc2)C(=O)N2CCC[C@H]2C(=O)N[C@H](C(C)C)C(=O)NCC(=O)N[C@H](CC(C)C)C(=O)N[C@H](Cc2ccc(O)cc2)C(=O)O[C@@H]1C` as the compound, how does the MIC read?
The MIC was 2.3 µM.

How did the MIC turn out when `C/C=C/[C@H](O)[C@H](O)c1ccccc1/C=C/C(=O)N[C@@H]1C(=O)N[C@@H](CO)C(=O)N[C@H](CC(C)C)C(=O)N[C@@H]([C@H](O)c2ccccc2)C(=O)N[C@@H](CO)C(=O)N[C@H]([C@@H](C)O)C(=O)N[C@H](CO)C(=O)N[C@H](c2ccc(O)cc2)C(=O)N[C@@H](C(C)C)C(=O)N[C@H](CC(C)C)C(=O)O[C@H]1C` was run?
Its MIC is 1.9 µM.

Which MIC does the source give for `Cc1ccccc1/C=C/C(=O)N[C@@H]1C(=O)N[C@@H](CO)C(=O)N[C@@H](Cc2c[nH]c3ccccc23)C(=O)N[C@H](CC(N)=O)C(=O)N[C@@H]([C@@H](O)c2ccccc2)C(=O)N2CCC[C@H]2C(=O)N[C@H](C(C)C)C(=O)NCC(=O)N[C@H](CC(C)C)C(=O)N[C@H](Cc2ccc(O)cc2)C(=O)O[C@@H]1C` here?
Its MIC is 14.8 µM.

From ChEMBL document CHEMBL4627379, “Production of Antitubercular Depsipeptides via Biosynthetic Engineering of Cinnamoyl Units” (2020)
